Marks after values point to notes of the source that are not given here.
Experiments:
in vivo [1] = conditions: male, cynomolgus, cynomolgus monkey, po, 30 mg/kg
[2] = Steady-state plasma pharmacokinetics in nonhuman primates after oral AT-527; conditions: NHP plasma, oral AT-527 60 mg/kg loading then 30 mg/kg every 12 h
in vitro [3] = conditions: human
[4] = tested on: SARS-CoV-2 (USA-WA1/2020); experiment: microbe, parasite or virus in culture; format: cell-based, SARS-CoV-2 (Betacoronavirus); conditions: SARS-CoV-2, HAE cells
in vitro [5] = conditions: human, intracellular half-life (t1/2) of AT-9010
[6] = tested on: primary human hepatocytes; conditions: cited from earlier work
Huh-7 cells = conditions: human, 8 h, 10 µM
primary NHP hepatocytes = conditions: cited from earlier work
in vivo [7] = conditions: male, cynomolgus monkey; for half-life: po, 30 mg/kg
[8] = tested on: MRC-5 (human lung fibroblast) cells; conditions: 8 h, 10 µM
NiRAN domain of nsp12 = tested on: NiRAN domain of nsp12; set-up: method as in our unpublished data; conditions: ref our unpublished data; cited from earlier work
[9] = male, cynomolgus monkey, in vivo
[10] = tested on: human bronchial epithelial (HBE) cells; conditions: 10 µM
in vitro [11] = conditions: human, intracellular half-life (t1/2) of AT-9010; remark: listed apart in the source
[12] = Clinical observation of nonhuman primates in the PK study; format: in vivo, cynomolgus monkey; conditions: NHP, oral AT-527 60 mg/kg loading then 30 mg/kg every 12 h
[13] = set-up: method as in doi:10.1016/S0168-8278(20)31210-1; conditions: HCV-infected subjects, daily oral 550 mg with daclatasvir for up to 12 weeks; cited from earlier work
[14] = Estimated oral bioavailability; conditions: in vivo, species and source not stated
HCoV-229E = experiment: CPE assay, HCoV-229E in BHK-21 cells; format: cell-based, HCoV-229E (Alphacoronavirus); conditions: Human coronavirus 229E, 72 h, 3-day incubation, MOI 0.01
Method: (§1) To assess whether AT-511, a 2′-fluoro-2′-methyl guanosine nucleotide prodrug (Fig. 1), had antiviral activity against a seasonal human alpha coronavirus, HCoV-229E, BHK-21 (baby hamster kidney) cells were acutely infected with the virus and exposed to serial dilutions of the drug. […] Half-maximal cytotoxicity (CC50) measured by neutral red staining of compound-treated cells in the absence of virus indicated little to no toxicity was detected from either drug up to 100 μM.
(§2) AT-511 and sofosbuvir were dissolved in DMSO at 100 mM and then diluted in growth medium to final concentrations of 100, 20, 4, and 0.8 μM (two […] replicate plates each). After BHK-21 cells were grown to confluence in 96-well plates, growth medium was replaced with fresh maintenance medium (growth medium with 1% inactivated FBS in place of 10% FBS) containing serially diluted test compound and HCoV-229E at a multiplicity of infection (MOI) of 0.01. Uninfected cells in the presence of serially diluted compound were used to assess the cytotoxicity of compounds. After a 3-day incubation at 37°C in a humidified 5% CO2 atmosphere, cell viability was determined by the 3-(4,5-dimethyl-2-thiazolyl)-2,5-diphenyl-2H-tetrazolium bromide (MTT) method ([22]). […]

[15] = Cytotoxicity in uninfected BHK-21 cells; format: cell-based; conditions: hamster, 3-day incubation, read-out: CPE assay CC50
Method: as §1, §2

[16] = human, in vivo
clinical = conditions: human, in vivo

SMILES: CNc1nc(N)nc2c1ncn2[C@@H]1O[C@H](CO[P@](=O)(O)N[C@@H](C)C(=O)O)[C@@H](O)[C@@]1(C)F [AT-551]
- Tmax (in vivo [1]): 1 to 4 h
- AUC0–12 [2]: 4.35 ± 1.77 µM·h

SMILES: CC(C)C(=O)OC[C@H]1O[C@@H](n2ccc(NO)nc2=O)[C@H](O)[C@@H]1O [Molnupiravir]
- CC50 at 5 days (in vitro [3]): > 19 µM
- Selectivity index (CC50/EC90) ([4]; CC50/EC90): >4.9^c
- EC90 ([4]; Severe acute respiratory syndrome coronavirus 2, 120 h, 5-day incubation, read-out: VYR assay EC90): 2.8 ± 1 µM

SMILES: C[C@@]1(F)[C@H](O)[C@@H](COP(=O)(O)OP(=O)(O)OP(=O)(O)O)O[C@H]1n1cnc2c(=O)[nH]c(N)nc21 [AT-9010]
- half-life at 10 µM (in vitro [5]): 38 to 39 h
- in vitro t1/2 of AT-9010 [6]: 10 h
- AT-9010 formed (Huh-7 cells): 182 ± 6 pmol/10^6 cells
- in vitro t1/2 of AT-9010 (primary NHP hepatocytes): 10 h
- concentration at 12 h (in vivo [7]; AT-9010 concentration in kidney): 130 ± 40 nM
- concentration at 12 h (in vivo [7]; AT-9010 concentration in liver tissue): 90 ± 30 nM
- concentration at 12 h (in vivo [7]; AT-9010 concentration in lung tissue): 140 ± 110 nM
- half-life (in vivo [7]; estimated half-life of AT-9010 in kidney tissue): 8.5 h
- half-life (in vivo [7]; estimated half-life of AT-9010 in lung tissue): 9.4 h
- AT-9010 formed [8]: 26.5 ± 0.5 pmol/10^6 cells
- inhibition of NiRAN (NiRAN domain of nsp12): potent inhibitor
- AT-9010 lung-to-liver concentration ratio ([9]; 12 h): 1.6
- AT-9010 in liver samples at 48-h postdose ([9]; 48 h): no peak corresponding to AT-9010 was detected
- in vitro t1/2 of the TP, fold longer than in hepatocytes [10]: 4
- half-life at 10 µM (in vitro [11]): 38 to 39 h

SMILES: CNc1nc(N)nc2c1ncn2C1OC(COP(=O)(NC(C)C(=O)OC(C)C)Oc2ccccc2)C(O)C1(C)F (stereo not shown) [AT-527]
- unusual or adverse clinical signs [12]: no such signs noted
- safety and tolerability [13]: safe and well tolerated
- bioavailability [14]: ≥ 50%

SMILES: CC(C)OC(=O)[C@H](C)N[P@](=O)(OC[C@H]1O[C@@H](n2ccc(=O)[nH]c2=O)[C@](C)(F)[C@@H]1O)Oc1ccccc1 [Sofosbuvir]
- EC50 (HCoV-229E): > 100 µM
- CC50 at 3 days [15]: > 100 µM

SMILES: C[C@@]1(F)[C@H](O)[C@@H](CO)O[C@H]1n1cnc2c(=O)[nH]c(N)nc21 [AT-273]
- absorption constant (Ka), population estimate [16]: 0.45 (±0.00253) h^−1
- volume of central compartment (V1), population estimate [16]: 2,070 (±146) liters
- volume of peripheral compartment (V2), population estimate [16]: 1,270 (±164) liters
- AUC(0-t) (in vivo [1]): 1.56 ± 0.18 µM·h
- half-life (in vivo [1]): 16 h
- clearance (clinical): 3130 mL/min
